# In patent publication US20130202614A1, “AUTOTAXIN PATHWAY MODULATION AND USES THEREOF” (B.S.R.C. "ALEXANDER FLEMING", priority 2010, published 2013):
# Key:
# Format in all cases: cell-based, mouse
# primary SFs [1] = experiment: Synovial fibroblast proliferation assay ([3H]thymidine incorporation); settings: for LPA responses of wt SFs (LPA-induced proliferation): pre-treated with inhibitor prior to LPA stimulation
# Procedure: Primary SFs were isolated from 6-8 week old mice as previously described. Briefly, mouse joint specimens were minced and digested with type IV collagenase. The released cells were grown in Dulbecco's modified Eagle's medium (DMEM) supplemented with fetal bovine serum (FBS) and penicillin-streptomycin. Isolated fibroblasts adhered on culture dishes were maintained under standard conditions (37° C. and 5% CO2) and used for the experiments between the third and fifth passages.
# Cells were starved with serum-free medium before treatment due to the presence of lysophospholipids in the serum Starvation medium is supplemented with 0.2% fatty-acid-free BSA. After routine starvation, cells were stimulated with various concentrations of the tested compounds (LPA, LPC, S1P or TNF) as indicated in details below. Where indicated cells were pre-treated with the inhibitors of ERK MAPK, p38 MAPK, JNK and Rho kinase for 3 hours prior to LPA stimulation. At the moment of cell treatment, the culture medium was replaced with fresh serum-free medium containing various concentrations of the tested compounds.
# Preconfluent cell cultures were starved overnight, incubated for 24 h with LPA and the rest tested compounds and finally exposed to 0.5 μCi/ml of [^3H]thymidine. Cells were then washed, harvested by trypsinization and blotted on a membrane. The radioactivity of incorporated [^3H]-thymidine was determined by liquid scintillation counting.
# primary SFs [2] = experiment: MMP production by SFs (RT-PCR); settings: MMP-9
# Procedure: Total RNA was extracted from subconfluent cultured SFs with the TRIzol reagent (Invitrogen Ltd, Paisley, PA4 9RF, UK Carlsbad, Calif. 92008) according to the manufacturer's instructions. RNA yield and purity were determined spectrophotometrically at 260/280 nm. cDNA synthesis was performed using the MMLV reverse transcriptase (Promega, Madison, Wis., United States Madison, Wis. 53711 USA). In all cases the normalization was performed in relation to the B2m internal control.
# SQ PCR was performed by 20-27 cycles of denaturation at 95° C. for 30 s, annealing at 56-60° C. (depending on the Tm of each individual set of primers) for 30 s, and extension at 72° C. for 1 min, in a final volume of 20 μl. The products were separated by electrophoresis on 1.5% agarose gel and stained with ethidium bromide. […] Quantitative real-time PCR was performed using the iCycler Iq Real-Time detection system and the IQ SYBR Green Supermix (Bio-Rad Laboratories, Hercules, Calif., United States), according to the manufacturer's instructions, for one cycle of 95° C. for 3 min, and 42 cycles of denaturation at 95° C. for 30 s and annealing at 56-58° C. for 45 s. […]
# BMD macrophages = experiment: Macrophage proliferation upon LPA addition; settings: primary cultures
# primary SFs [3] = experiment: SF cell migration assay (Boyden chambers); settings: LPA stimulation
# Procedure: Modified Boyden chambers with 8-μm pores (Corning/Costar) were used where the lower surface of the membrane was coated with 10 μg/ml human fibronectin for 2 hours at 37° C. Cells were harvested with trypsin/EDTA, washed with PBS, and resuspended to 1×10^6 cells per ml. The suspension was added to the upper chamber, and the cells were allowed to migrate at 37° C., 5% CO2, for 4 hours. Non-migratory cells were removed from the upper surface of the membrane while migratory cells in the lower compartment of the chambers were washed with PBS and stained with 0.2% crystal violet in 10% ethanol for 10 min. After extensive washing in H2O, the cells were lysed and absorbance was measured at 570 nm with a SPECTRAmax photometer.
# primary SFs [4] = experiment: SF actin cytoskeleton rearrangement (phalloidin F-actin staining); settings: phaloidin-F-actin staining
# Procedure: Cells were cultured on glass coverslips, grown in the presence of serum to subconfluence, and starved for 24 h by replacing the medium with serum-free medium containing 0.1% bovine serum albumin. Then the cells were treated with LPA and other components in serum-free medium for 4 h, fixed with 4% PFA and stained for F-actin with TRITC-conjugated phalloidin according to the manufacturer's protocol.
# primary SFs [5] = experiment: SF adhesion assay (fibronectin); settings: LPA stimulation
# Procedure: This assay was performed on plates coated with human fibronectin. Briefly, cells were allowed to adhere to the substrate, and unbound cells were removed with sequential washes with PBS. Adhered cells were then stained with crystal violet, solubilized, and their absorbance was determined at 570 nm. The experiment was performed in triplicates.
# primary SFs [6] = experiment: SF proinflammatory cytokine secretion (multiplex Luminex ELISA); settings: especially IL-6
# BDM macrophages = experiment: BMDM cytokine secretion (Luminex); settings: upon LPA stimulation
compound,measurement,setting,value
C[C@@H](N)[C@H]1CC[C@H](C(=O)Nc2ccncc2)CC1 [Hybridoma Y27632],LPA responses of wt SFs (LPA-induced proliferation),primary SFs [1],inhibited
C[S+]([O-])c1ccc(-c2nc(-c3ccncc3)c(-c3ccc(F)cc3)[nH]2)cc1 (centres unmarked) [SB203580],LPA responses of wt SFs (LPA-induced proliferation),primary SFs [1],inhibited
1-oleoyl-LPA (18:1),proliferation of wt SFs,primary SFs [1]; 3H-thymidine incorporation,stimulated the proliferation
same,synergy with TNF on SF proliferation,primary SFs [1]; different concentrations of LPA and/or TNF,synergizes with TNF
same,production of matrix metaloproteinases (MMPs) by SFs,primary SFs [2],stimulated
same,proliferation of macrophages,BMD macrophages,no effects
same,SF migration,primary SFs [3],increased
same,SF actin cytoskeleton,primary SFs [4],rearrangements of their actin cytoskeleton
same,SF adhesion,primary SFs [5],increased
same,proinflammatory cytokine secretion from SFs,primary SFs [6],stimulated proinflammatory cytokine secretion
same,cytokine secretion from BDM macrophages,BDM macrophages,No differences
"CCCCCCCC/C=C\CCCCCCCC(=O)OC[C@@H](O)COP(=O)([O-])OCC[N+](C)(C)C [LPC, 1-oleoyl-LPC (18:1)]",proliferation of mRA SFs,primary SFs [1]; 3H-thymidine incorporation,did stimulate the proliferation
same,proliferation of wt SFs,primary SFs [1]; 3H-thymidine incorporation,no effects
COc1cccc(-c2cc(=O)c3ccccc3o2)c1N [PD98059],LPA responses of wt SFs (LPA-induced proliferation),primary SFs [1],inhibited
